± gives the standard deviation of the averaged measurements.
Key:
Test in all cases: relative viability vs DMSO control (72 h) (fraction); higher = more viable cells
[1] = system: SW872
Summary of the method: (§1)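 Plates held 72 h at 37 °C and 5% CO2 contained sarcoma cell lines seeded in 384-well format to reach 80–90% confluence, plus 2.5 µl of serially diluted compound added after 24 h. Source plate concentrations ran from 10 mM to 0.0002 mM, with 0.1% DMSO as vehicle and a 5 µM positive control. Percent growth from ATPLite readings, averaged over up to triplicate wells, gave relative viability. Values were rescaled with 1 as full and 0 as none.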

[2] = system: A204
Summary of the method: as §1

[3] = system: SYO-1
Summary of the method: as §1

[4] = system: SK-ES-1
Summary of the method: as §1

[5] = system: SW982
Summary of the method: as §1

[6] = system: HS729
Summary of the method: as §1

[7] = system: KHOS-240S
Summary of the method: as §1

[8] = system: SW1353
Summary of the method: as §1

[9] = system: G401
Summary of the method: as §1

[10] = system: SW684
Summary of the method: as §1

[11] = system: MES-SA
Summary of the method: as §1

[12] = system: SK-LMS-1
Summary of the method: as §1

Cc1cc(F)c(C(=O)Nc2cccc(-c3nncn3C(C)C)n2)cc1-n1cnc(C2CC2)c1 [Selonsertib]
Conditions	relative viability
[1], 0.00017 µM	0.995 ± 0.016
[1], 0.00051 µM	1 ± 0.03
[1], 0.00152 µM	1.02 ± 0.014
[1], 0.00457 µM	1.03 ± 0.045
[1], 0.01372 µM	1.03 ± 0.015
[1], 0.04115 µM	1.04 ± 0.031
[1], 0.1235 µM	1.06 ± 0.031
[1], 0.3704 µM	1.05 ± 0.043
[1], 1.111 µM	1.08 ± 0.021
[1], 3.333 µM	1.07 ± 0.053
[1], 10 µM	1.05 ± 0.022
[2], 0.00017 µM	1.07 ± 0.067
[2], 0.00051 µM	1.02 ± 0.015
[2], 0.00152 µM	1.03 ± 0.077
[2], 0.00457 µM	1.09 ± 0.053
[2], 0.01372 µM	1.07 ± 0.034
[2], 0.04115 µM	1.08 ± 0.028
[2], 0.1235 µM	1.1 ± 0.052
[2], 0.3704 µM	1.07 ± 0.034
[2], 1.111 µM	1.01 ± 0.014
[2], 3.333 µM	0.802 ± 0.042
[2], 10 µM	0.389 ± 0.0071
[3], 0.00017 µM	0.95 ± 0.034
[3], 0.00051 µM	0.947 ± 0.04
[3], 0.00152 µM	0.949 ± 0.045
[3], 0.00457 µM	0.94 ± 0.025
[3], 0.01372 µM	0.95 ± 0.039
[3], 0.04115 µM	0.965 ± 0.019
[3], 0.1235 µM	0.944 ± 0.029
[3], 0.3704 µM	0.921 ± 0.068
[3], 1.111 µM	0.886 ± 0.087
[3], 3.333 µM	0.828 ± 0.08
[3], 10 µM	0.5622 ± 0.0028
[4], 0.00017 µM	1.01 ± 0.11
[4], 0.00051 µM	1.05 ± 0.05
[4], 0.00152 µM	1.03 ± 0.034
[4], 0.00457 µM	1.09 ± 0.015
[4], 0.01372 µM	1.08 ± 0.065
[4], 0.04115 µM	1.03 ± 0.046
[4], 0.1235 µM	1.03 ± 0.079
[4], 0.3704 µM	1.01 ± 0.046
[4], 1.111 µM	0.988 ± 0.078
[4], 3.333 µM	0.896 ± 0.076
[4], 10 µM	0.313 ± 0.067
[5], 0.00017 µM	1.05 ± 0.041
[5], 0.00051 µM	1.05 ± 0.043
[5], 0.00152 µM	1.07 ± 0.026
[5], 0.00457 µM	1.05 ± 0.052
[5], 0.01372 µM	1.08 ± 0.051
[5], 0.04115 µM	1.09 ± 0.045
[5], 0.1235 µM	1.07 ± 0.05
[5], 0.3704 µM	1.09 ± 0.036
[5], 1.111 µM	1.09 ± 0.034
[5], 3.333 µM	1.1 ± 0.013
[5], 10 µM	1.07 ± 0.068
[6], 0.00017 µM	0.914 ± 0.041
[6], 0.00051 µM	0.917 ± 0.051
[6], 0.00152 µM	0.92 ± 0.07
[6], 0.00457 µM	0.973 ± 0.03
[6], 0.01372 µM	0.936 ± 0.043
[6], 0.04115 µM	0.942 ± 0.041
[6], 0.1235 µM	0.888 ± 0.054
[6], 0.3704 µM	0.933 ± 0.029
[6], 1.111 µM	0.875 ± 0.025
[6], 3.333 µM	0.94 ± 0.031
[6], 10 µM	0.943 ± 0.11
[7], 0.00017 µM	1.05 ± 0.029
[7], 0.00051 µM	1.07 ± 0.032
[7], 0.00152 µM	1.04 ± 0.011
[7], 0.00457 µM	1.06 ± 0.033
[7], 0.01372 µM	1.07 ± 0.033
[7], 0.04115 µM	1.06 ± 0.051
[7], 0.1235 µM	1.07 ± 0.031
[7], 0.3704 µM	1.06 ± 0.019
[7], 1.111 µM	1.03 ± 0.034
[7], 3.333 µM	0.983 ± 0.063
[7], 10 µM	0.736 ± 0.024
[8], 0.00017 µM	0.962 ± 0.033
[8], 0.00051 µM	0.977 ± 0.035
[8], 0.00152 µM	0.951 ± 0.018
[8], 0.00457 µM	0.95 ± 0.024
[8], 0.01372 µM	0.934 ± 0.048
[8], 0.04115 µM	0.953 ± 0.011
[8], 0.1235 µM	0.968 ± 0.021
[8], 0.3704 µM	0.994 ± 0.037
[8], 1.111 µM	0.986 ± 0.015
[8], 3.333 µM	0.977 ± 0.055
[8], 10 µM	0.964 ± 0.024
[9], 0.00017 µM	1.02 ± 0.018
[9], 0.00051 µM	0.988 ± 0.027
[9], 0.00152 µM	1.01 ± 0.024
[9], 0.00457 µM	1.01 ± 0.015
[9], 0.01372 µM	0.995 ± 0.029
[9], 0.04115 µM	1.04 ± 0.051
[9], 0.1235 µM	1.01 ± 0.028
[9], 0.3704 µM	0.994 ± 0.056
[9], 1.111 µM	0.979 ± 0.017
[9], 3.333 µM	0.882 ± 0.054
[9], 10 µM	0.684 ± 0.038
[10], 0.00017 µM	1.15 ± 0.031
[10], 0.00051 µM	1.136 ± 0.0042
[10], 0.00152 µM	1.14 ± 0.016
[10], 0.00457 µM	1.15 ± 0.03
[10], 0.01372 µM	1.2 ± 0.024
[10], 0.04115 µM	1.14 ± 0.013
[10], 0.1235 µM	1.11 ± 0.024
[10], 0.3704 µM	1.12 ± 0.029
[10], 1.111 µM	1.1 ± 0.035
[10], 3.333 µM	1.13 ± 0.04
[10], 10 µM	1.012 ± 0.0029
[11], 0.00017 µM	0.887 ± 0.034
[11], 0.00051 µM	0.892 ± 0.021
[11], 0.00152 µM	0.907 ± 0.03
[11], 0.00457 µM	0.893 ± 0.0091
[11], 0.01372 µM	0.895 ± 0.03
[11], 0.04115 µM	0.93 ± 0.025
[11], 0.1235 µM	0.928 ± 0.034
[11], 0.3704 µM	0.912 ± 0.024
[11], 1.111 µM	0.87 ± 0.024
[11], 3.333 µM	0.78 ± 0.02
[11], 10 µM	0.368 ± 0.012
[12], 0.00017 µM	1.07 ± 0.04
[12], 0.00051 µM	1.08 ± 0.036
[12], 0.00152 µM	1.08 ± 0.054
[12], 0.00457 µM	1.09 ± 0.019
[12], 0.01372 µM	1.11 ± 0.054
[12], 0.04115 µM	1.09 ± 0.012
[12], 0.1235 µM	1.09 ± 0.039
[12], 0.3704 µM	1.09 ± 0.046
[12], 1.111 µM	1.04 ± 0.026
[12], 3.333 µM	1.05 ± 0.029
[12], 10 µM	0.898 ± 0.022

— the supplement of paper PMC10883282
